Experimental data: the supplement of paper PMC10011410
± gives the standard deviation of the averaged measurements.

Legend:
U-2 OS [1] = test: intracellular GSH:GSSG ratio (calculated); higher = more reduced glutathione pool; conditions: 24 h
Experimental: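 Intracellular glutathione in U-2 OS cells after 24 h compound treatment at 5, 10 and 20 uM (some at 40 and 80 uM). Total glutathione and GSSG were measured with the GSH/GSSG-Glo kit, and the GSH:GSSG ratio was calculated. Mean of five technical replicate plates.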

U-2 OS [2] = test: cell viability (CellTiter-Glo) relative to DMSO (% of control); higher = more viable; conditions: 24 h
Experimental: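 Cell viability of U-2 OS cells by CellTiter-Glo after 24 h compound treatment at 5, 10 and 20 uM (some at 40 and 80 uM), measured in parallel with the glutathione assay, as percent of DMSO control. Five technical replicate plates, averaged.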

U-2 OS [3] = test: total intracellular glutathione (GSH + GSSG) relative to DMSO (% of control); higher = more glutathione; conditions: 24 h
Experimental: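 Total intracellular glutathione (GSH + GSSG) in U-2 OS cells by GSH/GSSG-Glo after 24 h compound treatment at 5, 10 and 20 uM (some at 40 and 80 uM), as percent of DMSO control. Five technical replicate plates, averaged.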

U-2 OS [4] = test: cell painting activity score (Mahalanobis distance from DMSO wells); higher = stronger morphological phenotype; conditions: 24 h
In short: (§1)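 Images taken on an Opera Phenix of U-2 OS cells stained with MitoTracker, concanavalin A, phalloidin, wheat germ agglutinin, Hoechst and SYTO 14 were processed in CellProfiler, with features normalized to DMSO cells on the same plate. The cells, about 1,500 per well in 384-well plates, had been treated by pin tool for 24 h at 37 °C, usually at six 2-fold concentrations from 20 μM to 625 nM. The activity score measures Mahalanobis distance from DMSO wells, and cell count is expressed relative to DMSO wells. Each value averages four replicate plates.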

U-2 OS [5] = test: relative cell count vs DMSO (cell painting) (fraction of DMSO control); higher = more cells remaining (less cytotoxic); conditions: 24 h
In short: as §1

U-2 OS [6] = test: AUC of culture confluence over time (live-cell imaging) (AUC (confluence % x time)); higher = more confluent culture (less growth inhibition)
In short: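 Confluence of U-2 OS cells in F-12K medium with 10% FBS was tracked by live-cell imaging. Cells were seeded at 750 per well in 384-well plates and treated 24 h later by pin tool, with most compounds at 20, 10 and 5 μM and 0.2% DMSO. Cells were kept at 37 °C and imaged every 4 h for up to 60 h on an Incucyte S3 with a 10x objective. The value is the area under the confluence-versus-time curve.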

SMILES | intracellular GSH:GSSG ratio (U-2 OS [1]; 5 µM) | intracellular GSH:GSSG ratio (U-2 OS [1]; 10 µM) | intracellular GSH:GSSG ratio (U-2 OS [1]; 20 µM) | cell viability (U-2 OS [2]; 5 µM) | cell viability (U-2 OS [2]; 10 µM) | cell viability (U-2 OS [2]; 20 µM) | total intracellular glutathione (U-2 OS [3]; 5 µM) | total intracellular glutathione (U-2 OS [3]; 10 µM) | total intracellular glutathione (U-2 OS [3]; 20 µM) | cell painting activity score (U-2 OS [4]; 0.625 µM) | cell painting activity score (U-2 OS [4]; 1.25 µM) | cell painting activity score (U-2 OS [4]; 2.5 µM) | cell painting activity score (U-2 OS [4]; 5 µM) | cell painting activity score (U-2 OS [4]; 10 µM) | cell painting activity score (U-2 OS [4]; 20 µM) | relative cell count (U-2 OS [5]; 0.625 µM) | relative cell count (U-2 OS [5]; 1.25 µM) | relative cell count (U-2 OS [5]; 2.5 µM) | relative cell count (U-2 OS [5]; 5 µM) | relative cell count (U-2 OS [5]; 10 µM) | relative cell count (U-2 OS [5]; 20 µM) | AUC of culture confluence over time (U-2 OS [6]; 5 µM) | AUC of culture confluence over time (U-2 OS [6]; 10 µM) | AUC of culture confluence over time (U-2 OS [6]; 20 µM) | AUC of culture confluence over time (U-2 OS [6]; 0.625 µM) | AUC of culture confluence over time (U-2 OS [6]; 1.25 µM) | AUC of culture confluence over time (U-2 OS [6]; 2.5 µM) | intracellular GSH:GSSG ratio (U-2 OS [1]; 40 µM) | intracellular GSH:GSSG ratio (U-2 OS [1]; 80 µM) | cell viability (U-2 OS [2]; 40 µM) | cell viability (U-2 OS [2]; 80 µM) | total intracellular glutathione (U-2 OS [3]; 40 µM) | total intracellular glutathione (U-2 OS [3]; 80 µM) | cell painting activity score (U-2 OS [4]; 40 µM) | cell painting activity score (U-2 OS [4]; 80 µM) | relative cell count (U-2 OS [5]; 40 µM) | relative cell count (U-2 OS [5]; 80 µM) | AUC of culture confluence over time (U-2 OS [6]; 40 µM) | AUC of culture confluence over time (U-2 OS [6]; 80 µM)
COc1cc2ncnc(Nc3ccc(F)c(Cl)c3)c2cc1NC(=O)/C=C/CN1CCCCC1 | 10.8 | 7.42 | 1.96 | 74.4 ± 5 | 59.5 ± 2.5 | 22.4 ± 5.3 | 81.2 ± 4.8 | 59.3 ± 3.2 | 18.3 ± 12 | 10.6 | 10.4 | 11.7 | 13.9 | 18.6 | 22.1 | 0.624 | 0.681 | 0.586 | 0.503 | 0.331 | 0.035 | 26.9 | 14.6 | 13.7 |  |  |  |  |  |  |  |  |  |  |  |  |  |  | 
COc1cc2c(c(OC)c1OC)-c1ccc(OC)c(=O)cc1[C@@H](NC(C)=O)CC2 | 3 | 2.46 | 2.47 | 49.1 ± 4 | 52.8 ± 6.9 | 57.8 ± 6.9 | 59.7 ± 3.7 | 58.1 ± 4.3 | 60.6 ± 3.2 | 22.4 ± 2.2 | 22 ± 1.8 | 20.7 ± 1.9 | 20.3 ± 2.4 | 21.3 ± 1.8 | 21 ± 1.7 | 0.215 ± 0.03 | 0.215 ± 0.021 | 0.213 ± 0.02 | 0.209 ± 0.021 | 0.205 ± 0.017 | 0.197 ± 0.018 | 20.1 | 19.7 | 22.8 ± 0.82 | 21.6 | 21.5 | 21 |  |  |  |  |  |  |  |  |  |  |  | 
CC[C@]1(O)C[C@@H]2CN(CCc3c([nH]c4ccccc34)[C@@](C(=O)OC)(c3cc4c(cc3OC)N(C)[C@H]3[C@@](O)(C(=O)OC)[C@H](OC(C)=O)[C@]5(CC)C=CCN6CC[C@]43[C@@H]65)C2)C1 | 2.94 | 2.94 | 2.96 | 58.9 ± 5.4 | 57.8 ± 8.9 | 57.7 ± 2.6 | 60.6 ± 2.1 | 61.6 ± 7.3 | 60.5 ± 3.1 | 27.2 | 24.9 | 24.9 | 24.2 | 24.4 | 24.4 | 0.236 | 0.246 | 0.221 | 0.223 | 0.24 | 0.255 | 18.2 | 17.6 | 20 |  |  |  |  |  |  |  |  |  |  |  |  |  |  | 
Cc1cc(NC(=O)c2cccc(NC(=O)/C=C/CN(C)C)c2)ccc1Nc1nccc(-c2cccnc2)n1 | 23.3 | 21 | 8.13 | 102 ± 7.2 | 98.9 ± 2.7 | 78.6 ± 5.4 | 93.9 ± 3.6 | 94.7 ± 6.5 | 72.6 ± 3.4 | 10.3 | 11.4 | 11 | 10.8 | 11.1 | 13 | 0.888 | 0.863 | 0.841 | 0.839 | 0.742 | 0.425 | 45.6 | 31.1 | 15.2 |  |  |  |  |  |  |  |  |  |  |  |  |  |  | 
O=C(Nc1nc(-c2ccccc2)ns1)c1cccs1 | 16.9 | 13 | 23.8 | 95.9 ± 3.4 | 93.5 ± 3.8 | 97.5 ± 1.8 | 99.8 ± 3.8 | 98.1 ± 5.4 | 103 ± 7.2 | 4.56 | 4.47 | 2.86 | 3.95 | 3.58 | 4.52 | 0.94 | 0.902 | 0.915 | 0.929 | 0.917 | 0.914 | 42.6 | 48.1 | 43.5 |  |  |  |  |  |  |  |  |  |  |  |  |  |  | 
C=CC(=O)Nc1cc(Nc2nccc(-c3cn(C)c4ccccc34)n2)c(OC)cc1N(C)CCN(C)C | 22.9 | 12.3 | 7.29 | 75.6 ± 3.2 | 55 ± 4 | 35 ± 2.5 | 86.9 ± 3.4 | 77.4 ± 3.5 | 50.4 ± 3.9 | 10.5 | 8.95 | 9.22 | 9.78 | 13.8 | 17.8 | 0.982 | 0.951 | 0.964 | 0.897 | 0.773 | 0.363 | 39 | 28.4 | 7 |  |  |  |  |  |  |  |  |  |  |  |  |  |  | 
CCCCCCCCCCCCCCCc1cccc(O)c1C(=O)O | 19 | 18.3 | 24.7 | 102 ± 3 | 106 ± 5.8 | 100 ± 2.9 | 105 ± 3.3 | 94.7 ± 4.2 | 98.8 ± 4.7 | 3.17 | 3.13 | 3.54 | 3.63 | 4.51 | 3.58 | 1.09 | 1.09 | 1.13 | 1.05 | 1.01 | 1.05 | 42.7 | 53.4 | 52.9 |  |  |  | 19.7 | 18.1 | 104 ± 4.9 | 101 ± 5.3 | 95.5 ± 3.8 | 96.7 ± 3.9 | 12.9 | 21 | 0.326 | 0.342 | 51.2 | 40.9
